≈ marks a conversion by molar mass, not a printed value. Like-named read-outs stand apart in the source and are kept apart here.
Tests used:
Fusarium graminearum = format: in vivo; details: spray on flowering Triticum aestivum cv. Samson, inoculated 24 hours after treatment, evaluated 14 days later
[1] = system: Collectotrichum graminicola (Cg); assay: In vitro pathogen growth inhibition assay, Cg; format: cell-based; details: 48 h
Outline: (§1)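 Value reported is the compound concentration reaching ≥90% growth inhibition, from OD readings at 24 and 48 h after blank subtraction, confirmed visually. Inoculum was spores diluted in 17% V8 medium, except Rs, using 1.5 mm mycelial plugs in ¼ PDB; actual compound concentration corrected via OD600.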

Sphaerotheca fuliginea = assay: Foliar protection for cucumber powdery mildew control; format: in vivo; details: foliar spray on Cucumis sativus cv. Straight Eight, inoculated 24 hours after treatment, evaluated 7 days later
Outline: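 Protective foliar spray on 10-day-old Straight Eight cucumbers, with S. fuliginea spores dusted from infected stock plants 24 h after treatment. Disease developed at 23–27 °C, 60% RH and a 16 h photoperiod. Leaves were rated for mildew growth after 7 days; test rates 10 ppm or below.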

[2] = system: Blumeria graminis f. sp. hordei; assay: Foliar protection test for barley powdery mildew control; format: in vivo; details: foliar spray on Hordeum vulgare cv. Perry, inoculated 24 hours after treatment, evaluated 7 days later
Outline: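 Protective foliar test: compound atomized onto both leaf surfaces of 6-day-old Hordeum vulgare cv. Perry, followed after 24 h by spore-cloud inoculation from colonized untreated plants. Disease rated on leaves 7 days on, plants held at 20 to 22° C and 70% RH.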

Diplodia maydis (Dm) = assay: In vitro pathogen growth inhibition assay, Dm; format: cell-based; details: Stenocarpella maydis, 48 h
Outline: as §1

[3] = system: Fusarium virguliforme (Fv); assay: In vitro pathogen growth inhibition assay, Fv; format: cell-based
Outline: as §1

[4] = system: Mycosphaerella graminicola (synthetic Septoria tritici); assay: Foliar protection test for wheat septoria leaf blotch control; format: in vivo; details: foliar spray on Triticum aestivum cv. WinterHawk, inoculated 1 hour after treatment, evaluated 16 days later
Puccinia triticina = assay: Foliar protection test for wheat leaf rust control; format: in vivo; details: foliar application to wheat (Triticum aestivum cv. Winterhawk), evaluated 10 days later
Septoria tritici (St) = assay: In vitro pathogen growth inhibition assay, St; format: cell-based; details: Zymoseptoria tritici, 48 h
Outline: as §1

Rhizoctonia solani (Rs) = assay: In vitro pathogen growth inhibition assay, Rs (mycelial plugs); format: cell-based; details: Rhizoctonia solani, 48 h, mycelial plugs
Outline: as §1

[5] = system: Fusarium moniliforme (Fm); assay: In vitro pathogen growth inhibition assay, Fm; format: cell-based; details: Fusarium verticillioides
Outline: as §1

Botrtyis cinerea (Bc) = assay: In vitro pathogen growth inhibition assay, Bc; format: cell-based; details: 48 h
Outline: as §1

[6] = system: Phytophthora capsici (Pc); assay: In vitro pathogen growth inhibition assay, Pc; format: cell-based; details: 48 h
Outline: as §1

Phakopsora pachyrhizi = assay: Foliar protection test for Asian soybean rust control; format: in vivo; details: foliar application to soybean (Glycine max AG4832), percent disease area evaluated 14 days later
[7] = ≥90% growth inhibition, 48 hours, vs 2% DMSO control, read-out: Compound Concentration (ppm) sufficient for ≥90% inhibition of Cg
[8] = ≥90% growth inhibition, 48 hours, vs 2% DMSO control, read-out: Compound Concentration (ppm) sufficient for ≥90% inhibition of Dm
[9] = ≥90% growth inhibition, 48 hours, vs 2% DMSO control, read-out: Compound Concentration (ppm) sufficient for ≥90% inhibition of Fv
[10] = ≥90% growth inhibition, 48 hours, vs 2% DMSO control, read-out: Compound Concentration (ppm) sufficient for ≥90% inhibition of St
[11] = ≥90% growth inhibition, 48 hours, vs 2% DMSO control, read-out: Compound Concentration (ppm) sufficient for ≥90% inhibition of Rs
[12] = ≥90% growth inhibition, 48 hours, vs 2% DMSO control, read-out: Compound Concentration (ppm) sufficient for ≥90% inhibition of Fm
[13] = ≥90% growth inhibition, 48 hours, vs 2% DMSO control, read-out: Compound Concentration (ppm) sufficient for ≥90% inhibition of Bc
[14] = ≥90% growth inhibition, 48 hours, vs 2% DMSO control, read-out: Compound Concentration (ppm) sufficient for ≥90% inhibition of Pc

SMILES	Wheat Fusarium Head Blight Control at a compound concentration of 25 ppm or lower (Fusarium graminearum)	IC90 [1, 7]	Cucumber Powdery Mildew Control at a compound concentration of 10 ppm or lower (Sphaerotheca fuliginea)	Barley Powdery Mildew Control at a compound concentration of 10 ppm or lower [2]	IC90 (Diplodia maydis (Dm); [8])	IC90 [3, 9]	Septoria Leaf Blotch Control at a compound concentration of 25 ppm or lower [4]	Wheat Leaf Rust Control at a compound concentration of 10 ppm or lower (Puccinia triticina)	IC90 (Septoria tritici (St); [10])	IC90 (Rhizoctonia solani (Rs); [11])	IC90 [5, 12]	IC90 (Botrtyis cinerea (Bc); [13])	IC90 [6, 14]	Asian Soybean Rust Control at a compound concentration of 25 ppm or lower (Phakopsora pachyrhizi)	other results
COCCO[C@@H](Cn1c(=O)n([C@H](C)C(=O)NC(C)C)c(=O)c2c(C)c(-n3nccn3)sc21)c1cc(F)ccc1OC [Compound I-171, (R)-2-(1-((R)-2-(5-fluoro-2-methoxyphenyl)-2-(2-methoxyethoxy)ethyl)-5-methyl-2,4-dioxo-6-(2H-1,2,3-triazol-2-yl)-1,4-dihydrothieno[2,3-d]pyrimidin-3 (2H)-yl)-N-isopropylpropanamide]	C (from 25 to 49% control of wheat fusarium head blight)	0.08 mg/L (≈ 0.136 µM)	AA (≥85% control of cucumber powdery mildew)	AA (≥85% control of barley powdery mildew)	0.08 mg/L (≈ 0.136 µM)	≥ 0.4 mg/L	AA (≥85% control of wheat septoria leaf blotch)	B (from 50 to 69% control of wheat leaf rust)	≥ 2 mg/L	0.08 mg/L (≈ 0.136 µM)	0.08 mg/L (≈ 0.136 µM)	0.08 mg/L (≈ 0.136 µM)	≥ 10 mg/L	A (from 70% to 84% control of Asian soybean rust)	
CCOC(=O)c1sc2c(c1C)c(=O)n(C(C)(C)C(=O)NC(C)C)c(=O)n2C[C@H](OCCC#N)c1ccccc1OC [Compound I-233, (R)-ethyl-1-(2-(2-cyanoethoxy)-2-(2-methoxyphenyl)ethyl)-3-(1-(isopropylamino)-2-methyl-1-oxopropan-2-yl)-5-methyl-2,4-dioxo-1,2,3,4-tetrahydrothieno[2,3-d]pyrimidine-6-carboxylate]	C (from 25 to 49% control of wheat fusarium head blight)	0.4 mg/L (≈ 0.684 µM)	A (from 70% to 84% control of cucumber powdery mildew)	AA (≥85% control of barley powdery mildew)	0.4 mg/L (≈ 0.684 µM)	0.4 mg/L (≈ 0.684 µM)	C (from 25 to 49% control of wheat septoria leaf blotch)	AA (≥85% control of wheat leaf rust)	≥ 10 mg/L	2 mg/L (≈ 3.42 µM)	0.08 mg/L (≈ 0.137 µM)	0.4 mg/L (≈ 0.684 µM)	≥ 2 mg/L	A (from 70% to 84% control of Asian soybean rust)	
COc1ccc(F)cc1[C@H](Cn1c(=O)n(C(C)(C)C(=O)NC(C)C)c(=O)c2c(C)c(-n3nccn3)sc21)OC(C)=O [Compound I-323, (R)-1-(5-fluoro-2-methoxyphenyl)-2-(3-(1-(isopropylamino)-2-methyl-1-oxopropan-2-yl)-5-methyl-2,4-dioxo-6-(2H-1,2,3-triazol-2-yl)-3,4-dihydrothieno[2,3-d]pyrimidin-1(2H)-yl)ethyl acetate]	C (from 25 to 49% control of wheat fusarium head blight)	0.4 mg/L	AA (≥85% control of cucumber powdery mildew)	AA (≥85% control of barley powdery mildew)	≥ 0.4 mg/L	0.08 mg/L	AA (≥85% control of wheat septoria leaf blotch)	AA (≥85% control of wheat leaf rust)	> 50 mg/L	0.08 mg/L	0.08 mg/L	0.4 mg/L	> 50 mg/L	AA (≥85% control of Asian soybean rust)	
COCCCO[C@@H](Cn1c(=O)n([C@H](C)C(=O)NC(C)C)c(=O)c2c(C)c(-n3nccn3)sc21)c1cc(F)ccc1OC [Compound I-094, (R)-2-(1-((R)-2-(5-fluoro-2-methoxyphenyl)-2-(3-methoxypropoxy)ethyl)-5-methyl-2,4-dioxo-6-(2H-1,2,3-triazol-2-yl)-1,4-dihydrothieno[2,3-d]pyrimidin-3 (2H)-yl)-N-isopropylpropanamide]	A (from 70% to 84% control of wheat fusarium head blight)		AA (≥85% control of cucumber powdery mildew)	AA (≥85% control of barley powdery mildew)			A (from 70% to 84% control of wheat septoria leaf blotch)	C (from 25 to 49% control of wheat leaf rust)						C (from 25 to 49% control of Asian soybean rust)	IC90 ([1]; ≥90% inhibition, 48 hours vs 2% DMSO control, read-out: Compound Concentration (ppm) sufficient for ≥90% inhibition of growth, Cg): 0.08 mg/L (≈ 0.133 µM); IC90 (Diplodia maydis (Dm); ≥90% inhibition, 48 hours vs 2% DMSO control, read-out: Compound Concentration (ppm) sufficient for ≥90% inhibition of growth, Dm): > 0.4 mg/L; IC90 ([3]; ≥90% inhibition, 48 hours vs 2% DMSO control, read-out: Compound Concentration (ppm) sufficient for ≥90% inhibition of growth, Fv): 0.08 mg/L (≈ 0.133 µM); IC90 (Septoria tritici (St); ≥90% inhibition, 48 hours vs 2% DMSO control, read-out: Compound Concentration (ppm) sufficient for ≥90% inhibition of growth, St): ≥ 10 mg/L; IC90 (Rhizoctonia solani (Rs); ≥90% inhibition, 48 hours vs 2% DMSO control, read-out: Compound Concentration (ppm) sufficient for ≥90% inhibition of growth, Rs): 0.08 mg/L (≈ 0.133 µM); IC90 ([5]; ≥90% inhibition, 48 hours vs 2% DMSO control, read-out: Compound Concentration (ppm) sufficient for ≥90% inhibition of growth, Fm): 0.08 mg/L (≈ 0.133 µM); IC90 (Botrtyis cinerea (Bc); ≥90% inhibition, 48 hours vs 2% DMSO control, read-out: Compound Concentration (ppm) sufficient for ≥90% inhibition of growth, Bc): 0.08 mg/L (≈ 0.133 µM); IC90 ([6]; ≥90% inhibition, 48 hours vs 2% DMSO control, read-out: Compound Concentration (ppm) sufficient for ≥90% inhibition of growth, Pc): > 50 mg/L
COc1ccc(F)cc1[C@H](Cn1c(=O)n(C(C)(C)C(=O)NC(C)C)c(=O)c2c(C)c(-n3cccn3)sc21)OC[C@@H](C)C#N [Compound I-262, 2-(1-((R)-2-((S)-2-cyanopropoxy)-2-(5-fluoro-2-methoxyphenyl)ethyl)-5-methyl-2,4-dioxo-6-(1H-pyrazol-1-yl)-1,4-dihydrothieno[2,3-d]pyrimidin-3 (2H)-yl)-N-isopropyl-2-methylpropanamide]	B (from 50 to 69% control of wheat fusarium head blight)	0.08 mg/L (≈ 0.131 µM)	AA (≥85% control of cucumber powdery mildew)	A (from 70% to 84% control of barley powdery mildew)	2 mg/L (≈ 3.27 µM)	0.4 mg/L (≈ 0.655 µM)	AA (≥85% control of wheat septoria leaf blotch)	AA (≥85% control of wheat leaf rust)	≥ 2 mg/L	0.08 mg/L (≈ 0.131 µM)	≥ 0.08 mg/L	0.4 mg/L (≈ 0.655 µM)	≥ 10 mg/L	AA (≥85% control of Asian soybean rust)	

— patent US10941157B2, “Pesticidal compositions and uses thereof” (Gilead Apollo, LLC, priority 2015, dated 2021)
